Assay results as given in patent US20240115587A1, “COMBINATION THERAPIES” (Kallyope, Inc., priority 2022, published 2024).
Counter-ions that a name gives are not always drawn.

Legend:
male C57BL/6J mice [1] = assay: Gut hormone (GLP-1) secretion in mice, plasma GLP-1 after oral gavage; type: in vivo; conditions: 30 mg/kg of each compound
Experimental: To determine whether activating two receptors simultaneously results in increased effects on hormone release, representative GPR40 agonists of Formula (B) were tested in combination with a GPR119 agonist of Formula (A). GLP-1 was measured at 5 and 17 h post dose. For the dose titration study, male C57BL/6J mice were acclimated to the facility and the dosing procedure. Mice were weighed and then fasted for 4 h. The mice were administered vehicle, a GPR40 agonist of Formula (B) at 30 mg/kg, a GPR119 agonist of Formula (A) at 30 mg/kg, and the GPR40 agonist of Formula (B) at 0.3, 1, 3, 10, and 30 mg/kg doses in combination with the GPR119 agonist of Formula (A) at 30 mg/kg by oral gavage. Blood was collected at 5 h post-dose or 17 h post-dose, and plasma was assayed for GLP-1.

human GPR40 = biological target: T1, human GPR40 (Homo sapiens, UniProt O14842); assay: Inositol phosphate (IP1) accumulation assay, CHO-K1 cells expressing human GPR40; type: cell-based; conditions: CHO hFFAR1 cells, IP1 HTRF, 90 min
T1 construct: host or cells: CHO-K1
T1 sequence (O14842 whole entry): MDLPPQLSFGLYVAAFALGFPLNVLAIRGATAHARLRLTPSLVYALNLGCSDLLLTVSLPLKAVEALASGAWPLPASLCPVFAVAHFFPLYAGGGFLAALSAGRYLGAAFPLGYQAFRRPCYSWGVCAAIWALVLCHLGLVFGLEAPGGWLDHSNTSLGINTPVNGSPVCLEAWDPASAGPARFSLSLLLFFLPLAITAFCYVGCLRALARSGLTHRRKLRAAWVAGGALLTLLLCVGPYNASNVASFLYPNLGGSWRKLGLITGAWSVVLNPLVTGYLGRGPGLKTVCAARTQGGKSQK
Experimental: CHO-K1 cells expressing human GPR40 were purchased from DiscoverX (95-1005C2). HEK293 cells expressing mouse FFAR1 were prepared using a mouse FFAR1 carrying plasmid purchased from OriGene Technologies (MR222997). The cells were transfected using Lipofectamine 2000 using manufacturer instructions and stable cell line was established from a single cell using geneticine selection. Assay ready frozen (ARF) cells were prepared and used throughout the study.
The assay was performed in a 384-well plate format using IP1 assay kit from Cis-Bio. ARF cells expressing FFAR1 (mouse and human) were thawed, washed and then plated in the appropriate medium (F12 based medium for CHO hFFAR1 and DMEM based medium for HEK293 mFFAR1—both were supplemented with 10% FBS and penicillin/streptomycin). 20 μL of 3.5×10^5 cells/mL were plated on a Poly D-Lysine coated 384-well white plate. The cells were then incubated for 16 hr at 37° C./5% CO2. After 16 hr the medium was removed and 15 μL of stimulation buffer containing the test compounds was added to the cells. The plates were then incubated for 90 min at 37° C./5% CO2. […]
[…] was measured using ClarioSTAR plate reader, calculating the ratio between emissions at 665 nm and 620 nm (HTRF ratio). […] EC50 and Max activity values were determined using a standard 4-parameter fit.

male C57BL/6J mice [2] = assay: Glucose excursion during oral glucose tolerance test in mice; type: in vivo; conditions: for % Reduction in 2-h glucose AUC vs. vehicle: OGTT, AUC 0 to 120 min, B6, B1, A14 30 mg/kg, linagliptin 0.3 mg/kg, metformin 300 mg/kg, dosed 1 h before glucose
Experimental: The effects of GPR40 agonists of Formula (B) and a GPR119 agonist of Formula (A) alone and in combination on glucose excursion during an oral glucose tolerance test were assessed in mice. The effects of the combination of a compound of Formula (A) and compounds of Formula (B) with linagliptin (a DPP-4 inhibitor) or metformin were also assessed. Male C57BL/6J mice, approximately 10 weeks old, were acclimated to the facility and the oral dosing procedure. Mice were randomized into balanced treatment groups using body weight. Baseline glucose was assessed immediately before compound administration. […] Blood was assessed for glucose levels 20 min, 40 min, 60 min, and 120 min post D-(+)-glucose administration. The AUCs for blood glucose measures were calculated for each treatment from 0 to 120 min. Statistical analysis was performed on AUCs using one-way ANOVA versus vehicle, with Tukey's post-test.

[3] = tested on: diet-induced-obese (DIO) mice; assay: 14-day weight loss in DIO mice; type: in vivo; conditions: BID, 13 or 14 days
Experimental: The effects of a GPR40 Agonist of Formula (B) alone and in combination with a GPR119 Agonist of Formula (A) on body weight were assessed in diet-induced-obese (DIO) mice over 14 days.
Male C57BL/6J DIO mice, approximately 16 weeks old (Jackson Laboratories), were provided 60% high fat diet and water ad libitum. Animals were dosed BID (two times a day) with vehicle for an approximately 3-week until body weight had stabilized. At approximately 20 weeks of age, the mice were randomized into treatment groups (n=8/group) by body weight (range of 37 to 55 g) as well as food intake, and body weight change measured over a two-day baseline period. In order to maximize time on target throughout the day, compounds were administered BID, 8 h apart. Food intake and body weight were measured daily.

[4] = tested on: primary human ileal crypt cultures; assay: GLP-1 secretion in human ileal crypt cultures; type: cell-based; conditions: 30 μM
Experimental: The potential for the combination of a compound of Formula (A) and a compound of Formula (B) to induce gut hormone secretion from EECs was assessed using primary human ileal crypt cultures and compared to the effect of the individual agents.

human GPR119 (hGPR119) = biological target: T2, human GPR119 (hGPR119) (Homo sapiens, UniProt Q8TDV5); assay: cAMP accumulation assay, CHO-K1 cells stably expressing human GPR119; type: cell-based; conditions: cAMP HTRF, 60 minutes
T2 construct: expressed in transfected cells
T2 sequence (Q8TDV5 1-335): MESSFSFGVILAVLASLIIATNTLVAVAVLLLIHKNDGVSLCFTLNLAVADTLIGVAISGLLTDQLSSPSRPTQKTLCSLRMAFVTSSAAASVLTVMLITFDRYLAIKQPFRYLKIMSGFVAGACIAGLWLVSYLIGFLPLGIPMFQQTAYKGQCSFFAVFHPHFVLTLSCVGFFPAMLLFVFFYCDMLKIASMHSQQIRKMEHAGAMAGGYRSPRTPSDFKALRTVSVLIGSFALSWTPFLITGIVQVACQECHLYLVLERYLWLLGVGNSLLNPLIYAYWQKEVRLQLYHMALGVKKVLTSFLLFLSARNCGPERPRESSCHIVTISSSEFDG
Experimental: CHO-K1 cells stably expressing human GPR119 (hGPR119) were prepared by transfection of a GPR119-carrying plasmid using Lipofectamine 2000 (following manufacturer instructions). A stable cell line was established using the limiting dilution method with geneticine selection. Assay-ready frozen (ARF) cells were prepared and used throughout the study.
The assay was performed in a 384-well plate format using the cAMP Gs dynamic assay kit from Cisbio. ARF cells expressing hGPR119 were thawed, washed and then resuspended in cAMP stimulation buffer at a cell density of 1.1×10^6 cells/mL. Cells were plated at a density of ˜10,000 cells/well (9 μL/well). Dose response curves for the tested compounds were prepared in a cAMP stimulation buffer, containing 0.1% Tween 80 at 4 fold the final concentration. The compounds were then transferred to the cell plates using BRAVO (3 μL/well) and the plates were incubated for 60 minutes at 37° C./5% CO2. Detection buffer (10 μL, prepared as described in the cAMP Gs dynamic kit) were added to each well, and the plates were incubated at ambient temperature for 1 hr.
RT-FRET was measured using a ClarioSTAR plate reader, calculating the ratio between emissions at 665 nm and 620 nm (HTRF ratio). The HTRF ratio for positive (Max) and negative (Min) controls were used to normalize HTRF data and generate values for % activity. EC50 and Max activity values were determined using a standard 4-parameter fit.

SMILES	EC50 (human GPR119 (hGPR119)) [nM]	GLP-1 (fold increase) (male C57BL/6J mice [1]; 5 h post dose)	GLP-1 (fold increase) (male C57BL/6J mice [1]; 17 h post dose)	% Reduction in 2-h glucose AUC vs. vehicle (male C57BL/6J mice [2]) [%]	GLP-1 (fold increase) [4] [fold increase]	also measured
COc1ccc(F)c([C@H]2CC[C@H](COc3cccc([C@H](C[P@](C)(=O)O)C4CC4)c3)CC2)c1 (single isomer, unassigned) [Compound B1]	–	1.9	1.4	14	5.5	EC50 (human GPR40): ≤ 50 nM; % Weight Loss vs Vehicle ([3]; Study 1, DIO mice): 3.1%
COc1ccc(F)c([C@H]2CC[C@H](COc3cccc([C@@H](C[P@@](C)(=O)O)C4CC4)c3)CC2)c1 (single isomer, unassigned) [Compound B2]	–	–	–	–	–	EC50 (human GPR40): 50 to 250 nM
CCCc1cnc(N2CCC(CCCOc3cc(F)c(CC(=O)N4CC(C(=O)NCCC[N+](C)(C)C)C4)c(F)c3)CC2)nc1 [Compound A13, 3-[[1-[2-[2,6-difluoro-4-[3-[1-(5-propylpyrimidin-2-yl)-4-piperidyl]propoxy]phenyl]acetyl]azetidine-3-carbonyl|amino]propyl-trimethyl-ammonium formate]	100 to 1000	–	–	–	–	–
O=C(Cc1ccc(OCCCC2CCN(c3ncc(Cl)cn3)CC2)cc1F)N1CC(CNC[C@H](O)[C@@H](O)[C@H](O)[C@H](O)CO)C1 [Compound A14, 2-[4-[3-[1-(5-chloropyrimidin-2-yl)-4-piperidyl]propoxy]-2-fluoro-phenyl]-1-[3-[[[(2S,3R,4R,5R)-2,3,4,5,6-pentahydroxyhexyl]amino]methyl]azetidin-1-yl]ethanone]	–	1.6	1.3	14	1.9	% Weight Loss vs Vehicle ([3]; Study 1, DIO mice): 2.5%
CCc1cnc(N2CCC(CCCOc3ccc(CC(=O)N4CC(CNC[C@H](O)[C@H](O)[C@@H](O)[C@H](O)C(=O)O)C4)c(F)c3)CC2)nc1 [Compound A36, (2S,3R,4S,5S)-6-[[1-[2-[4-[3-[1-(5-ethylpyrimidin-2-yl)-4-piperidyl]propoxy]-2-fluoro-phenyl]acetyl]azetidin-3-yl]methylamino]-2,3,4,5-tetrahydroxy-hexanoic acid]	≤ 100	–	–	–	–	–
COCc1cnc(N2CCC(CCCOc3ccc(CC(=O)N4CC(CNCCNC(=O)NC(CO)(CO)CO)C4)c(F)c3)CC2)nc1 [Compound A51]	100 to 1000	–	–	–	–	–
O=C(NCCCCS(=O)(=O)O)C1CN(C(=O)Cc2ccc(OCCCC3CCN(c4ncc(Cl)cn4)CC3)cc2F)C1 [Compound A65, 4-[[1-[2-[4-[3-[1-(5-chloropyrimidin-2-yl)-4-piperidyl]propoxy]-2-fluoro-phenyl]acetyl]azetidine-3-carbonyl]amino]butane-1-sulfonic acid]	100 to 1000	–	–	–	–	–
COc1ccc(CCCC(C)(C)C)c(N2CCC(COc3cccc([C@@H](CP(C)(=O)O)C4CC4)c3)CC2)c1 [Compound B6, ((S)-2-cyclopropyl-2-(3-((1-(2-(4,4-dimethylpentyl)-5-methoxyphenyl)piperidin-4-yl)methoxy)phenyl)ethyl)(methyl)phosphinic acid]	–	3.2	1.9	21	4.0	% Weight Loss vs Vehicle ([3]; Study 2, DIO mice): 5.2%
CC#CCn1c(N2CCC[C@@H](N)C2)nc2c1c(=O)n(Cc1nc(C)c3ccccc3n1)c(=O)n2C [linagliptin, reference compound]	–	–	–	17	–	–
CN(C)C(=N)N=C(N)N [metformin, reference compound]	–	–	–	26	–	post-prandial glucose excursion (male C57BL/6J mice [2]; OGTT in mice): suppressed post-prandial glucose excursion
